Source: paper PMC6291243 (The Journal of organic chemistry, 2018)

Columns and labels:
LipM = molecular target: T1, LipM (Streptomyces sp. SANK 60405, UniProt D4QF26); assay: HPLC of UDP-sugar, coupled with phosphorylase; assay type: biochemical; conditions: generated in situ from 13b; UTP
T1 sequence (D4QF26 1-233): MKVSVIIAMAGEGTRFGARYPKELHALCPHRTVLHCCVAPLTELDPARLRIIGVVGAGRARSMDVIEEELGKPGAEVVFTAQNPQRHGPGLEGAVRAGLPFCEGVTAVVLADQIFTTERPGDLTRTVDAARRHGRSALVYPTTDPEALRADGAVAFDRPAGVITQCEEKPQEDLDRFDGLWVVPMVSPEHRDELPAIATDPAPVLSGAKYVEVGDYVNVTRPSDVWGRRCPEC

Mur20 = Mur20 (Streptomyces sp. NRRL 30471, UniProt F2WUD2); assay: HPLC, specific activity; assay type: biochemical; conditions: amine donor; 1 mM 11a, 50 mM potassium phosphate pH 7.5, 30 °C

Structure (SMILES) | HPLC of UDP-sugar, coupled with phosphorylase (LipM) | HPLC, specific activity (Mur20)
NC[C@H]1O[C@H](OP(=O)(O)O)C[C@@H]1O [5-amino-2,5-dideoxy-α-D-ribose-1-phosphate] | either enzyme was substituted with the respective orthologous proteins LipP or LipM | –
N[C@@H](Cc1ccc(O)cc1)C(=O)O [L-Tyr] | – | the specific activity for Mur20 was highest using L-Tyr as an amine donor
